Reference: patent US5527793A, “Antibiotic carbapenem compounds” (Zeneca Limited, priority 1992, dated 1996)
Where a name gives a salt, the structure may show the parent alone.

Assays:
Experiment in all cases: MIC by agar-dilution technique, Diagnostic Sensitivity Test
Type in all cases: cell-based
B. fragilis AMP S = details: Bacteroides fragilis, inoculum 10^4 CFU/spot, read-out: minimum inhibitory concentration (MIC)
From the text: (§1) The following results were obtained for representative compounds on a standard in vitro test system using Diagnostic Sensitivity Test. The antibacterial activity is described in terms of the minimum inhibitory concentration (MIC) determined by the agar-dilution technique with an inoculum size of 10^4 CFU/spot.

E. coli DCO = details: Escherichia coli, inoculum 10^4 CFU/spot, read-out: minimum inhibitory concentration (MIC)
From the text: as §1

[1] = tested on: Enterobacter cloacae P99-; details: P99, read-out: minimum inhibitory concentration (MIC)
From the text: as §1

P. morganii I + 001 = details: Morganella morganii, inoculum 10^4 CFU/spot, read-out: minimum inhibitory concentration (MIC)
From the text: as §1

S. aureus Oxford = details: Staphylococcus aureus, inoculum 10^4 CFU/spot, read-out: minimum inhibitory concentration (MIC)
From the text: as §1

Question: Which results are given for `C[C@@H](O)[C@H]1C(=O)N2C(C(=O)O)=C(S[C@@H]3CN[C@H](C(=O)Nc4nc(C(=O)O)cs4)C3)[C@H](C)[C@H]12` [Example 2, (1R,5S,6S,8R,2'S,4'S)-2-(2-(4-Carboxy-2-thiazolylcarbamoyl)pyrrolidin-4-ylthio)-6-(1-hydroxyethyl)71-methylcarbapenem-3-carboxylic acid, disodium salt]?
Answer: MIC (B. fragilis AMP S): 0.5 µg/mL; MIC (E. coli DCO): 0.03 µg/mL; MIC [1]: 0.03 µg/mL; MIC (P. morganii I + 001): 0.03 µg/mL; MIC (S. aureus Oxford): 0.25 µg/mL
